Results as given in PubChem BioAssay (NCI).
Where “and” joins values, the source holds several entries; their conditions need not be identical. Equal values may be shown once.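 Exposure lasted 48 hours, with cells grown in 96-well plates and compounds tested at five concentrations. The concentration for 50% growth inhibition is given as GI50. TGI: concentration producing complete growth inhibition.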

Legend:
Assay in all cases: DTP human tumour cell line panel, 48 h
[1] = test system: OVCAR-3 ovarian
[2] = test system: A549 NSCLC
[3] = test system: NCI-H522 lung
[4] = test system: HCC-2998 colon
[5] = test system: UO-31 renal
[6] = test system: PC-3 prostate
[7] = test system: SF-539 CNS
[8] = test system: HCT-15 colon
[9] = test system: HS 578T breast
[10] = test system: CCRF-CEM leukemia

CCCCCC(=O)N1c2ccccc2NC2=C(C(=O)CC(c3ccc(OC)c(OC)c3)C2)C1c1ccc(C(F)(F)F)cc1 (centres undefined)
GI50 [1]: > 100 µM | TGI [1]: > 100 µM | GI50 [2]: > 100 µM | TGI [2]: > 100 µM | GI50 [3]: 70.8 µM | TGI [3]: > 100 µM | GI50 [4]: > 100 µM | TGI [4]: > 100 µM | GI50 [5]: 42.5 µM | TGI [5]: > 100 µM | GI50 [6]: 6.25 µM | TGI [6]: > 100 µM | GI50 [7]: > 100 µM | TGI [7]: > 100 µM | GI50 [8]: > 100 µM | TGI [8]: > 100 µM | GI50 [9]: > 100 µM | TGI [9]: > 100 µM | GI50 [10]: > 100 µM | TGI [10]: > 100 µM

N#Cc1nc(-c2cccc(Br)c2)cc(-c2ccc(Nc3nc(N4CCCCC4)nc(N4CCCCC4)n3)cc2)c1N
GI50 [1]: 1.76 µM | TGI [1]: 3.54 µM | GI50 [2]: 3.68 µM | TGI [2]: > 100 µM | GI50 [3]: 1.78 µM | TGI [3]: 4.72 µM | GI50 [4]: 2.31 µM | TGI [4]: 6.62 µM | GI50 [5]: 1.68 µM | TGI [5]: 5.47 µM | GI50 [6]: 1.94 µM | TGI [6]: 7.11 µM | GI50 [7]: 1.74 µM | TGI [7]: 3.14 µM | GI50 [8]: 1.72 µM | TGI [8]: 5.53 µM | GI50 [9]: 2.1 µM | TGI [9]: 5.29 µM | GI50 [10]: 0.587 µM | TGI [10]: > 100 µM

O=C1C(NCCO)=C(N2CC2)C(=O)C(NCCO)=C1N1CC1
TGI [1]: > 75.8 µM | TGI [2]: > 100 µM | TGI [3]: 70.6 µM | TGI [4]: > 100 µM | TGI [5]: > 88 µM | TGI [6]: > 100 µM | TGI [7]: 98 µM | TGI [8]: > 72.5 µM | TGI [9]: > 100 µM | TGI [10]: 55.9 µM

COc1cc(N2CCC(N(C)C)CC2)ccc1Nc1ncc(Cl)c(Nc2ccccc2P(C)(C)=O)n1
GI50 [1]: 1.73 µM and 0.728 µM | TGI [1]: 11.3 µM and 7.01 µM | GI50 [2]: 0.617 µM and 0.218 µM | TGI [2]: 8.54 µM and > 7.6 µM | GI50 [3]: 0.483 µM and 0.115 µM | TGI [3]: 6.08 µM and 3.32 µM | GI50 [4]: 3.6 µM and 0.446 µM | TGI [4]: > 52.2 µM | GI50 [5]: 1.82 µM and 0.752 µM | TGI [5]: 4.73 µM and 4.59 µM | GI50 [6]: 3.73 µM and 0.506 µM | TGI [6]: > 96.6 µM | GI50 [7]: 1.15 µM and 0.511 µM | TGI [7]: 2.97 µM and 2.49 µM | GI50 [8]: 2.8 µM and 1.48 µM | TGI [8]: 16.9 µM and > 9.67 µM | GI50 [9]: 1.83 µM and 0.496 µM | TGI [9]: 8.27 µM and 2.21 µM | TGI [10]: > 100 µM

S=C(Nc1ccccc1)c1ccccn1
GI50 [1]: 31.6 µM | TGI [1]: > 100 µM | GI50 [2]: > 100 µM | TGI [2]: > 100 µM | GI50 [3]: 14 µM | TGI [3]: > 100 µM | GI50 [4]: > 100 µM | TGI [4]: > 100 µM | GI50 [5]: 25.5 µM | TGI [5]: > 100 µM | GI50 [6]: 54.7 µM | TGI [6]: > 100 µM | GI50 [7]: > 100 µM | TGI [7]: > 100 µM | GI50 [8]: 40.3 µM | TGI [8]: > 100 µM | GI50 [9]: > 100 µM | TGI [9]: > 100 µM | GI50 [10]: 3.97 µM | TGI [10]: 40.4 µM

OCCNc1nc(NCCO)nc(Nc2ccc(C3=NN(c4cc(Cl)cc(Cl)c4)C(c4ccc(Cl)cc4)C3)cc2)n1 (centres undefined)
GI50 [1]: 1.75 µM | TGI [1]: 3.19 µM | GI50 [2]: 1.96 µM | TGI [2]: 4.45 µM | GI50 [3]: 2.03 µM | TGI [3]: 4.66 µM | GI50 [4]: 1.96 µM | TGI [4]: 3.52 µM | GI50 [5]: 1.63 µM | TGI [5]: 3.16 µM | GI50 [6]: 1.62 µM | TGI [6]: 4.32 µM | GI50 [7]: 1.35 µM | TGI [7]: 2.63 µM | GI50 [8]: 1.48 µM | TGI [8]: 2.8 µM | GI50 [9]: 2.22 µM | TGI [9]: 6.98 µM | GI50 [10]: 2.11 µM | TGI [10]: 5.46 µM

C[C@]12CC[C@H]3[C@@H](CCC4=CC(=O)CC[C@@H]43)[C@@H]1CC[C@@H]2OC1(O)C(=O)c2ccccc2C1=O
TGI [1]: > 100 µM | TGI [2]: > 100 µM | TGI [3]: 35.9 µM | TGI [4]: > 100 µM | TGI [5]: 78.3 µM | TGI [6]: > 100 µM | TGI [7]: > 100 µM | TGI [8]: > 100 µM | TGI [9]: > 100 µM | TGI [10]: > 100 µM

COc1ccc(NC2=C(Sc3nc(C)cc(C)n3)C(=O)N(Cc3ccccc3)C2=O)cc1Cl
GI50 [1]: > 160 µM | TGI [1]: > 160 µM | GI50 [2]: > 160 µM | TGI [2]: > 160 µM | GI50 [3]: > 160 µM | TGI [3]: > 160 µM | GI50 [4]: > 160 µM | TGI [4]: > 160 µM | GI50 [5]: > 160 µM | TGI [5]: > 160 µM | GI50 [6]: 32.9 µM | TGI [6]: > 160 µM | GI50 [7]: > 160 µM | TGI [7]: > 160 µM | GI50 [8]: > 160 µM | TGI [8]: > 160 µM | GI50 [9]: 67.9 µM | TGI [9]: > 160 µM | GI50 [10]: 13.9 µM | TGI [10]: > 160 µM

C#Cc1cccc(NC(=O)Nc2ccc(NC(=O)CCl)cc2)c1
GI50 [1]: 12.1 µM | TGI [1]: 25.5 µM | GI50 [2]: > 82.5 µM | TGI [2]: > 82.5 µM | GI50 [3]: 12.2 µM | TGI [3]: 29.3 µM | GI50 [4]: 52.5 µM | TGI [4]: > 82.5 µM | GI50 [5]: 12.2 µM | TGI [5]: 23.3 µM | GI50 [6]: 17.1 µM | TGI [6]: 74.5 µM | GI50 [7]: 13.3 µM | TGI [7]: 25 µM | GI50 [8]: 15.4 µM | TGI [8]: 36.3 µM | GI50 [9]: 17.8 µM | TGI [9]: 81.7 µM | GI50 [10]: 9.55 µM | TGI [10]: 26.9 µM

CC1(C)OC2C(CO)OC(n3ccc(=O)[nH]c3=O)C2O1 (centres undefined)
TGI [1]: > 100 µM | TGI [2]: > 100 µM | TGI [3]: > 100 µM | TGI [4]: > 100 µM | TGI [5]: > 100 µM | TGI [6]: > 100 µM | TGI [7]: > 100 µM | TGI [8]: > 100 µM | TGI [9]: > 100 µM | TGI [10]: > 100 µM

CCOC(=O)c1cc2c(cc1Cl)SC(N(c1ccc(F)cc1)S(=O)(=O)c1ccc(OC)cc1)=NS2(=O)=O
GI50 [1]: 13.9 µM | TGI [1]: 28.3 µM | GI50 [2]: 22 µM | TGI [2]: > 100 µM | GI50 [3]: 13.5 µM | TGI [3]: 29.9 µM | GI50 [4]: 18.2 µM | TGI [4]: 35.2 µM | GI50 [5]: 17.9 µM | TGI [5]: 42.2 µM | GI50 [6]: 11.3 µM | TGI [6]: 25.5 µM | GI50 [7]: 9.61 µM | TGI [7]: 22.7 µM | GI50 [8]: 14.8 µM | TGI [8]: 27.9 µM | GI50 [9]: 20.7 µM | TGI [9]: 51.3 µM | GI50 [10]: 1.31 µM | TGI [10]: 54.2 µM

Cc1cccc(C(C)O)n1 (centres undefined)
TGI [1]: > 100 µM | TGI [2]: > 100 µM | TGI [3]: > 100 µM | TGI [4]: > 100 µM | TGI [5]: > 100 µM | TGI [6]: > 100 µM | TGI [7]: > 100 µM | TGI [8]: > 100 µM | TGI [9]: > 100 µM | TGI [10]: > 100 µM

CC(C)(C)Cn1c(N)nc2ccc(-c3[nH]c(C(C)(C)C)nc3-c3ccc(F)cc3)nc21
GI50 [1]: 9.47 µM | TGI [1]: 23.7 µM | GI50 [2]: 8.38 µM | TGI [2]: 28.7 µM | GI50 [3]: 8.5 µM | TGI [3]: 23.8 µM | GI50 [4]: 11.1 µM | TGI [4]: 24.1 µM | GI50 [5]: 0.406 µM | TGI [5]: 15.1 µM | GI50 [6]: 12.6 µM | TGI [6]: > 62.5 µM | GI50 [7]: 13.3 µM | TGI [7]: 28.5 µM | GI50 [8]: 4.9 µM | TGI [8]: 30.4 µM | GI50 [9]: 13.7 µM | TGI [9]: 73 µM | GI50 [10]: 12.6 µM | TGI [10]: > 63 µM

C[C@]12CC[C@H]3[C@@H](CC=C4C[C@@H](O)CC[C@@]43C)[C@@H]1C/C(=C\c1cccc(OCCN3CCOCC3)c1)[C@@H]2O
GI50 [1]: > 100 µM | TGI [1]: > 100 µM | GI50 [2]: > 100 µM | TGI [2]: > 100 µM | GI50 [3]: > 100 µM | TGI [3]: > 100 µM | GI50 [4]: > 100 µM | TGI [4]: > 100 µM | GI50 [5]: 33.5 µM | TGI [5]: > 100 µM | GI50 [6]: 27.4 µM | TGI [6]: > 100 µM | GI50 [7]: > 100 µM | TGI [7]: > 100 µM | GI50 [8]: 38.9 µM | TGI [8]: > 100 µM | GI50 [9]: > 100 µM | TGI [9]: > 100 µM | GI50 [10]: 41.1 µM | TGI [10]: > 100 µM
